# In patent US20100113415A1, “EPHA4 RTK INHIBITORS FOR TREATMENT OF NEUROLOGICAL AND NEURODEGENERATIVE DISORDERS AND CANCER” (priority 2008, published 2010):
# pIC50: −log10 of the molar value.
# How the values were obtained:
# [1] = target: T1, human form of EphA4 receptor over-expressed in CHO-K1 cells (Homo sapiens, UniProt P54764); assay: EphA4 cell-based assay (pGAS-Luc luciferase reporter in EphA4-transfected CHO-K1 cells); details: for pIC50: inflexion point, luciferase, read-out: EphA4 Cell Assay IP; for EphA4 Cell Assay maximum percent inhibition: value in parentheses
# T1 construct: expressed in transfected cells; host or cells: CHO-K1
# T1 sequence (P54764 20-986): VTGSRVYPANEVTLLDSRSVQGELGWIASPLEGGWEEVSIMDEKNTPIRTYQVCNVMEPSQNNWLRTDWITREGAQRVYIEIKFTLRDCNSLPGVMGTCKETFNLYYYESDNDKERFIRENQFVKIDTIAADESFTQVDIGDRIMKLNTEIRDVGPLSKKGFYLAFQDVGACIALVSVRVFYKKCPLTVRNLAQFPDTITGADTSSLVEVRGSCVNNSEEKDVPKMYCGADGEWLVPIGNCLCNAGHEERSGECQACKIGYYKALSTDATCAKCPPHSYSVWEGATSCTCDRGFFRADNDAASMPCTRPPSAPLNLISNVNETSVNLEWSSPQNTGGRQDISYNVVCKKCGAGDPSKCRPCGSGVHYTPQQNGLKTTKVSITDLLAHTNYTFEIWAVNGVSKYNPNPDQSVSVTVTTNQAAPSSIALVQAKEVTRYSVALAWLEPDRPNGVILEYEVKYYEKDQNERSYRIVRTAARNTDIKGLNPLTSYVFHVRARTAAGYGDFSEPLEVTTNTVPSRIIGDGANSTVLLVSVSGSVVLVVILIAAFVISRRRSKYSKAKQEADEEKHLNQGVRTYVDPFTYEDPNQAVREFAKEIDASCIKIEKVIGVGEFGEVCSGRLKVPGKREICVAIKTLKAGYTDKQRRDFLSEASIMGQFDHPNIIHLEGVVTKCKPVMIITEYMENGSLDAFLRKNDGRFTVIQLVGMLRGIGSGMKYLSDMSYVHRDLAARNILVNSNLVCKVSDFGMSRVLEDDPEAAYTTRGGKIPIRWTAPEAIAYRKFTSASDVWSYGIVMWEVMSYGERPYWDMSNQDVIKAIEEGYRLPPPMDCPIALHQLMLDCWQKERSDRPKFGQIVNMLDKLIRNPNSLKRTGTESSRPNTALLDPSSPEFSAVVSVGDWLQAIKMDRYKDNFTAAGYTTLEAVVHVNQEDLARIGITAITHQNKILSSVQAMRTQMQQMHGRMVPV
# Source text: A cell-based assay was used to measure the potency of the compounds on the human form of EphA4 receptor over-expressed in Chinese Hamster Ovary cell line, CHO-K1 cells (Merck Collection). The cell assay was based on a novel signaling pathway of EphA4, which involves activation of the tyrosine kinase Jak2 and the transcriptional activator Stat3 (39).
# Reagents: The expression constructs of EphA4 were subcloned into the expression vector pCMV6-XL5 (Origene, MD, USA) (clone from Merck Kinase Library). The luciferase construct that was linked to the Stat1-responsive enhancer (pGAS-Luc) was bought from Stratagene (USA). The renilla construct that linked to an empty vector CMV was bought from Promega (USA).
# Transfection and Luciferase Assay: CHO-K1 cells were plated in T-175 cell culture bottle in DMEM medium supplemented with 10% fetal bovine serum, 1 mM sodium pyruvate, 2 mM L-glutamine and 1.5 g/L sodium bicarbonate. When cell reached 70-80% confluence, transfections were performed in T-175 culture flasks, using Lipofectamine 2000™ transfection reagent (Invitrogen) according to the manufacturer's directions. For the luciferase assay CHO-K1 cells were co-transfected the next day with 50 μg of pGAS-Luc, 70 μg of EphA4, and 5 μg of empty vector pRL-CMV, which encoded the Renilla luciferase, and was included in the transfection mix for normalization. Six hours after transfection the cells were trypsinized and plated at 4.105 cells/ml into 96 well Black/Clear Poly-D-Lysine coated plates (Biocoat) that had been pre-spotted with compounds. Cells were lysed the next day using the Reporter Lysis Buffer (Promega), and the luciferase activity was measured using the Dual Luciferase Assay (Promega) following the manufacturer's directions. The Firefly and Renilla luminescences are read consecutively on a Top-Count (Perkin-Elmer). Results are expressed as a ratio of the two luminescence: Firefly Luciferase/Renilla Luciferase. Cell viability was assessed on parallel plates using the Cell Glo Assay (Promega) following the manufacturer's directions. Results are expressed as percent of cell death in comparison with vehicle-treated wells.
# Compounds were titrated in duplicate at 10 points concentration starting at 100 μM with a 1.5 fold increment. Concentration-response curves were represented and the concentrations at the inflexion point (IP) were calculated. The maximum effect was given by the maximum percent inhibition calculated from the results of the control wells (containing only DMSO).
# [2] = test system: C2C12 mouse myoblast cell line; assay: Scratch wound assay, C2C12 cells; type: cell-based; details: from AUC of % wound confluence; for pIC50: Mus musculus, C2C12, inflexion point, read-out: Scratch Assay C2C12 Cells IP
# Experimental: Cell Cultures: C2C12 mouse myoblast cell line (ATCC, VA, USA) was maintained in culture in DMEM media supplemented with 10% fetal bovine serum, 1 mM sodium pyruvate, 1.5 g/L sodium bicarbonate, and 100 IU of penicillin, […] of streptomycin. The cells were then differentiated into myotubes with DMEM supplemented with 2% horse serum for 3 days in 24 well ImageLock™ plate (Essen Instruments, MI, USA).
# Scratch wound assays are commonly used to assess the effects of drugs and drug candidates on the cellular proliferation and/or migration associated with wound closing. The IncuCyte™ system (Essen Instruments, MI, USA), an automated imaging platform, provides ongoing, real-time images and quantitative data generated throughout the wound-closing process. Cells were maintained in 24 well ImageLock™ (Essen Instruments, MI, USA) at 37° C. and 95% CO2/5% O2, until a confluent monolayer was achieved. A single scratch wound was then created in each well using the Essen Woundmaker™ (Essen Instruments, MI, USA). It induced a mechanical scratch of the cell monolayer using plastic pipette tips (10-20 μl pipette tips, Eppendorff). Dead cells and other debris produced by the scratch were immediately washed with regular growth media. Cells were then treated with pharmacological agents and were placed into the IncuCyte™ at 37° C. and 95% CO2/5% O2, for two to three days. During this time, the wound area within each well was repeatedly imaged at fixed time intervals (every three hours). The IncuCyte™ scratch wound software generates a “wound mask” for each well. An initial wound mask is created for the first image (at time 0) that clearly delineates the border of the wound. A revised mask is generated for each subsequent image to track wound closure. Wound closure can be automatically monitored using the wound confluence (% confluence). Wound confluence can be graphed over time to evaluate the characteristics of wound closing in the presence of pharmacological agents.
# The calculation of the area under the curve (AUC) of the % confluence function of the time gave a quantitative measurement of compounds efficacy on the scratch wound closing. Compounds were titrated in quadruplicate at 5 points concentration starting at 20 μM with a two-fold increment. The percentage of inhibition was calculated from the AUCs at each dose in comparison with the AUCs of the control wells (1% DMSO). Concentration-response curves were represented and the concentrations at the inflexion point (IP) were calculated. The maximum effect was given by the maximum percent inhibition.
# C2C12 cells = assay: Toxicity (percent of cell death), C2C12 cells; type: cell-based; details: 20 μM
# Experimental: (§1) EphA4 kinase inhibition is assessed by both an enzymatic assay measuring the phosphorylation of a purified recombinant EphA4 kinase and a cell-based assay using the activation of pGas-Luciferase system in EphA4-transfected CHO-K1 cells. The functional effects of EphA4 RTK inhibitors on cell motility and proliferation is evaluated by the scratch wound assay. The effect of EphA4 RTK inhibitors is also directly measured on the cell confluence. The counterscreen assays (cell counterscreen, Src, Jak2 and P38α kinase) identified other potential inhibitory activities of compounds unrelated to EphA4 kinase. The toxicity is measured by the percent of cell death in the different cell assays. Values represent IC50 and IP in μM calculated from the dose-response curves. Values in parentheses give the maximum percent inhibition.
# [3] = test system: Primary Rat cortical astrocytes; assay: Toxicity (percent of cell death), astrocytes; type: cell-based; details: at 20 μM
# Experimental: as §1
# P38alpha kinase = target: T2, P38alpha kinase (Homo sapiens, UniProt Q16539); assay: P38 alpha kinase counterscreen assay (Caliper mobility shift); type: biochemical
# T2 construct: purchased Dundee Library
# T2 sequence (Q16539 whole entry): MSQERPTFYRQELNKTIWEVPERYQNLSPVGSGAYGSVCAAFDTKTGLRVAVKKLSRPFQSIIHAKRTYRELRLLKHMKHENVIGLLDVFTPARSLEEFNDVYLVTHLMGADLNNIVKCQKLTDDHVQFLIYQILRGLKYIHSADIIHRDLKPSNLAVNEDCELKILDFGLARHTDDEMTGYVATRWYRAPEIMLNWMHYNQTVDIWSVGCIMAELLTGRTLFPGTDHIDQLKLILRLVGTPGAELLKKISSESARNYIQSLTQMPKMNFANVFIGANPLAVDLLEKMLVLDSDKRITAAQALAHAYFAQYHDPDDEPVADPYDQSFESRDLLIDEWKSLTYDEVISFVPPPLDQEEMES
# Experimental: A counterscreen assay was performed to measure p38alpha kinase activity using the Caliper System (LifeSciences, USA). This system is based on the microfluidic technology. P38 alpha kinase activity was measured by the shift in mobility of the non-phosphorylated form when separated by electrophoresis and detected via LED (Light Emitting Diode) induced fluorescence. This assay was automated following the manufacturer's protocol. P38alpha kinase and its substrate GST-MK2 were bought from Dundee Library.
# Compounds were titrated, concentration-response curves were represented and the concentrations for 50% inhibition (IC50) were calculated.
Compound,pIC50 [1],EphA4 Cell Assay maximum percent inhibition [1],pIC50 [2],Scratch Assay C2C12 Cells max inhibition in % [2],Max Toxicity C2C12 in cells % of cell death (C2C12 cells),Max Toxicity Astrocytes % of cell death [3],pIC50 (P38alpha kinase)
CC1CCc2c(-c3ccccc3Cl)nc3[nH]nc(N)c3c2C1 (centres unmarked) [Example 63],5.14,55%,5.51,46%,3%,5% at 20 μM,5.14
Cc1ccccc1-c1nc2[nH]nc(N)c2c2c1CCC(C)(C)C2 [Example 67],5.64,46%,6.30,78%,10%,12.5% at 20 μM,5.43
